From ChEMBL document CHEMBL1201862, “PubChem BioAssay data set” (2004)
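Briefly, cells in 96-well plates were exposed to five compound concentrations for 48 h, and endpoints were estimated by linear interpolation. The concentration for 50% growth inhibition is given as GI50.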 Calls of active or inactive are those of the source. No stated cut-off is given here; in the data, active = GI50 up to about 1.1 µM and inactive = higher.

How the values were obtained:
Assay in all cases: DTP human tumour cell line panel, 48 h
[1] = test system: KM12
[2] = test system: OVCAR-5
[3] = test system: CCRF-CEM
[4] = test system: TK-10
[5] = test system: MDA-N
[6] = test system: IGROV-1
[7] = test system: A498
[8] = test system: SK-MEL-28
[9] = test system: HCT-15
[10] = test system: NCI-H522
[11] = test system: SF-539
[12] = test system: K562
[13] = test system: PC-3
[14] = test system: HCT-116
[15] = test system: U-251
[16] = test system: SR
[17] = test system: OVCAR-3
[18] = test system: UO-31
[19] = test system: SK-MEL-2
[20] = test system: MDA-MB-231

CN1C(=O)C(CC(=O)O)NC1=S (stereo not given)
GI50 [1]: > 100 µM (inactive)
GI50 [2]: > 100 µM (inactive)
GI50 [3]: > 100 µM (inactive)
GI50 [4]: > 100 µM (inactive)
GI50 [5]: > 100 µM (inactive)
GI50 [6]: 99.5 µM (inactive)
GI50 [7]: > 100 µM (inactive)
GI50 [8]: > 100 µM (inactive)
GI50 [9]: > 100 µM
GI50 [10]: > 100 µM (inactive)
GI50 [11]: > 100 µM (inactive)
GI50 [12]: > 100 µM (inactive)
GI50 [13]: > 100 µM (inactive)
GI50 [14]: 95.5 µM (inactive)
GI50 [15]: > 100 µM (inactive)
GI50 [16]: > 100 µM (inactive)
GI50 [17]: > 100 µM (inactive)
GI50 [18]: > 100 µM (inactive)
GI50 [19]: > 100 µM (inactive)
GI50 [20]: > 100 µM (inactive)

c1cc(CSc2ncnc3[nH]cnc23)ccn1
GI50 [1]: > 100 µM (inactive)
GI50 [2]: > 100 µM (inactive)
GI50 [3]: 66.8 µM (inactive)
GI50 [4]: 59.8 µM (inactive)
GI50 [5]: 42.9 µM (inactive)
GI50 [6]: > 100 µM (inactive)
GI50 [7]: > 100 µM (inactive)
GI50 [8]: > 100 µM (inactive)
GI50 [9]: > 100 µM
GI50 [10]: 42.2 µM (inactive)
GI50 [11]: 24.5 µM (inactive)
GI50 [12]: 27.8 µM (inactive)
GI50 [13]: > 100 µM (inactive)
GI50 [14]: 77.8 µM (inactive)
GI50 [15]: > 100 µM (inactive)
GI50 [16]: 34.4 µM (inactive)
GI50 [17]: 63 µM (inactive)
GI50 [18]: 57.8 µM (inactive)
GI50 [19]: 80.5 µM (inactive)
GI50 [20]: > 100 µM (inactive)

CO/C=C(/C(=O)OC)c1ccccc1[C@H]1C[C@@H]1c1ccccc1
GI50 [1]: 20.1 µM (inactive)
GI50 [2]: 73.8 µM (inactive)
GI50 [3]: 10.6 µM (inactive)
GI50 [4]: 28 µM (inactive)
GI50 [5]: 18.7 µM (inactive)
GI50 [6]: 19.9 µM (inactive)
GI50 [7]: 27.9 µM (inactive)
GI50 [8]: 25.8 µM (inactive)
GI50 [9]: 23.4 µM
GI50 [10]: 12.9 µM (inactive)
GI50 [11]: 21.2 µM (inactive)
GI50 [12]: 26.2 µM (inactive)
GI50 [13]: 22.8 µM (inactive)
GI50 [14]: 17.4 µM (inactive)
GI50 [15]: 23.1 µM (inactive)
GI50 [16]: 14.2 µM (inactive)
GI50 [17]: 18.5 µM (inactive)
GI50 [18]: 29.4 µM (inactive)
GI50 [19]: 17.2 µM (inactive)
GI50 [20]: 31.6 µM (inactive)

O=C(/C=C/c1ccccc1)c1cc(CN2CCOCC2)c(O)c(CN2CCOCC2)c1
GI50 [1]: 15.5 µM (inactive)
GI50 [2]: 14.6 µM (inactive)
GI50 [3]: 2.71 µM (inactive)
GI50 [4]: 20.6 µM (inactive)
GI50 [5]: 19.7 µM (inactive)
GI50 [6]: > 100 µM (inactive)
GI50 [7]: 12.9 µM (inactive)
GI50 [8]: 14.5 µM (inactive)
GI50 [9]: 7.5 µM
GI50 [10]: > 100 µM (inactive)
GI50 [11]: 15.1 µM (inactive)
GI50 [12]: 5.47 µM (inactive)
GI50 [13]: 19.2 µM (inactive)
GI50 [14]: 12.6 µM (inactive)
GI50 [15]: 4.51 µM (inactive)
GI50 [16]: 5.51 µM (inactive)
GI50 [17]: 12.2 µM (inactive)
GI50 [18]: 15.4 µM (inactive)
GI50 [19]: 23.4 µM (inactive)
GI50 [20]: 18.2 µM (inactive)

O=C(O)c1cc(-c2ccc3c(O)c(O)ccc3c2)ccc1O
GI50 [1]: 47.4 µM (inactive)
GI50 [2]: 12.6 µM (inactive)
GI50 [3]: 12.3 µM (inactive)
GI50 [4]: > 75 µM (inactive)
GI50 [5]: 25.2 µM (inactive)
GI50 [6]: 40.5 µM (inactive)
GI50 [7]: 72.9 µM (inactive)
GI50 [8]: > 75 µM (inactive)
GI50 [9]: 41.3 µM
GI50 [10]: 38.5 µM (inactive)
GI50 [11]: > 75 µM (inactive)
GI50 [12]: 13.1 µM (inactive)
GI50 [13]: > 75 µM (inactive)
GI50 [14]: 15.8 µM (inactive)
GI50 [15]: 15 µM (inactive)
GI50 [16]: 18.1 µM (inactive)
GI50 [17]: > 75 µM (inactive)
GI50 [18]: > 75 µM (inactive)
GI50 [19]: > 75 µM (inactive)
GI50 [20]: 26.1 µM (inactive)

CC(=O)O[C@@H]1CO[C@H]2O[C@H]3[C@@H](C(C=O)=C[C@H](O)[C@@H]4C5=C(C(C)C)CC[C@]5(C)CC[C@@]34C)[C@@]2(O)C1=O [STRIATIN E]
GI50 [1]: 0.404 µM (active)
GI50 [2]: 0.303 µM (active)
GI50 [3]: < 0.0271 µM (active)
GI50 [4]: 0.229 µM (active)
GI50 [5]: 0.177 µM (active)
GI50 [6]: 0.219 µM (active)
GI50 [7]: 0.305 µM (active)
GI50 [8]: 0.234 µM (active)
GI50 [9]: 0.2 µM
GI50 [10]: 0.0803 µM (active)
GI50 [11]: 0.177 µM (active)
GI50 [12]: 0.0869 µM (active)
GI50 [13]: 0.0968 µM (active)
GI50 [14]: 0.076 µM (active)
GI50 [15]: 0.175 µM (active)
GI50 [16]: 0.146 µM (active)
GI50 [17]: 0.139 µM (active)
GI50 [18]: 0.241 µM (active)
GI50 [19]: 0.23 µM (active)
GI50 [20]: 0.184 µM (active)

Cn1c(=O)oc2cc(C(=O)CSC(=S)N3CCCCCC3)ccc21
GI50 [1]: 49.8 µM (inactive)
GI50 [2]: > 100 µM (inactive)
GI50 [3]: 75.5 µM (inactive)
GI50 [4]: > 100 µM (inactive)
GI50 [5]: > 100 µM (inactive)
GI50 [6]: > 100 µM (inactive)
GI50 [7]: 6.93 µM (inactive)
GI50 [8]: > 100 µM (inactive)
GI50 [9]: 81.1 µM
GI50 [10]: > 100 µM (inactive)
GI50 [11]: > 100 µM (inactive)
GI50 [12]: 57.1 µM (inactive)
GI50 [13]: 99.1 µM (inactive)
GI50 [14]: 73.6 µM (inactive)
GI50 [15]: 72.8 µM (inactive)
GI50 [16]: 56.2 µM (inactive)
GI50 [17]: > 100 µM (inactive)
GI50 [18]: > 100 µM (inactive)
GI50 [19]: > 100 µM (inactive)
GI50 [20]: > 100 µM (inactive)
